Patent publication US9340507B2, “Substituted 4-pyridones and their use as inhibitors of neutrophil elastase activity” (Boehringer Ingelheim International GmbH, priority 2012, dated 2016)

Each compound was assayed against Human neutrophil elastase (Homo sapiens (Human), UniProt P08246) (assay: Human Neutrophil Elastase Assay). Conditions: substrate MeOSuc-Ala-Ala-Pro-Val-AMC 250 μM, pH 7.5, fluorescence.
Chain of Human neutrophil elastase (P08246 30-267): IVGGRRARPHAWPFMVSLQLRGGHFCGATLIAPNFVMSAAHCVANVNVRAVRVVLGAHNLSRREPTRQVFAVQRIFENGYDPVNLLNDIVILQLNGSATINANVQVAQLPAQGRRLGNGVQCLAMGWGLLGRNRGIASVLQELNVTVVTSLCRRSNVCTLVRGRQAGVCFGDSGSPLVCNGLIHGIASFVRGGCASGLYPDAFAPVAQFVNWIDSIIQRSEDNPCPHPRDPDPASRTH
Type: biochemical
Method: Human Neutrophil Elastase Assay
All other materials were of the highest grade commercially available.
The following buffers were used: Compound buffer: 100 mM Tris, 500 mM NaCl, adjusted to pH 7.5; Assay buffer: 100 mM Tris, 500 mM NaCl, adjusted to pH 7.5, containing 0.01% BSA.
Assay conditions: Test compounds were prediluted in DMSO and subsequently in compound buffer (5% DMSO final). […] After inactivation of the enzyme, fluorescence intensities were measured at 380 nm excitation and 460 nm emission wavelengths.
Each plate contains wells with a high value control (DMSO+enzyme+substrate) and wells with a low value control (DMSO+inactivated enzyme+substrate). IC50 values were estimated using a sigmoidal concentration response curve with variable slope. Means of low values were taken as 0%, means of high values as 100%. IC50 values of selected compound in the Neutrophil Elastase assay: […]
Work on `CCn1cc(C(=O)NCc2ccc(S(C)(=O)=O)cc2)c(=O)c(-c2cccc(C(F)F)c2)c1C` [Example 10, 5-(3-Difluoromethyl-phenyl)-1-ethyl-6-methyl-4-oxo-1,4-dihydro-pyridine-3-carboxylic acid 4-methanesulfonyl-benzylamide] yielded an IC50 of 29 nM.
Compound `Cc1c(-c2cccc(C(F)(F)F)c2)c(=O)c(C(=O)NCc2ccc(S(C)(=O)=O)cn2)cn1C1CCOC1` (stereo not drawn) [Example 22, 6-Methyl-4-oxo-1-(tetrahydro-furan-3-yl)-5-(3-trifluoromethyl-phenyl)-1,4-dihydro-pyridine-3-carboxylic acid (5-methanesulfonyl-pyridin-2-ylmethyl)-amide] has an IC50 of 27 nM.
`CCn1cc(C(=O)NCc2ccc(S(C)(=O)=O)cc2)c(=O)c(-c2cccc(C(F)(F)F)c2)c1C` [Example 1.1, 1-Ethyl-6-methyl-4-oxo-5-(3-trifluoromethyl-phenyl)-1,4-dihydro-pyridine-3-carboxylic acid 4-methanesulfonyl-benzylamide] was tested, and the IC50 was 33 nM.
`CCC(CC)n1cc(C(=O)NCc2ccc(S(C)(=O)=O)cn2)c(=O)c(-c2cccc(C(F)(F)F)c2)c1C` [Example 23.1, 1-(1-Ethyl-propyl)-6-methyl-4-oxo-5-(3-trifluoromethyl-phenyl)-1,4-dihydro-pyridine-3-carboxylic acid (5-methanesulfonyl-pyridin-2-ylmethyl)-amide] showed an IC50 of 12 nM.
Compound `CC[C@H](C)n1cc(C(=O)NCc2ccc(S(C)(=O)=O)cn2)c(=O)c(-c2cccc(C(F)F)c2)c1C` [Example 20.2, (S)-1-sec-Butyl-5-(3-difluoromethyl-phenyl)-6-methyl-4-oxo-1,4-dihydro-pyridine-3-carboxylic acid (5-methanesulfonyl-pyridin-2-ylmethyl)-amide] has an IC50 of 11 nM.
With `CCS(=O)(=O)c1ccc(CNC(=O)c2cn(C(C)C)c(C)c(-c3cccc(C(F)(F)F)c3)c2=O)cc1` [Example 30.1, 1-Isopropyl-6-methyl-4-oxo-5-(3-trifluoromethyl-phenyl)-1,4-dihydro-pyridine-3-carboxylic acid 4-ethanesulfonyl-benzylamide] the IC50 was 13 nM.
`Cc1c(-c2ccnc(C(F)(F)F)c2)c(=O)c(C(=O)NCc2ccc3c(c2)CCS3(=O)=O)cn1C(C)C` [Example 29.3, 1-Isopropyl-2-methyl-4-oxo-2′-trifluoromethyl-1,4-dihydro-[3,4]bipyridinyl-5-carboxylic acid (1,1-dioxo-2,3-dihydro-1H-1λ^6-benzo[b]thiophen-5-ylmethyl)-amide] showed an IC50 of 15 nM.
In the case of `Cc1c(-c2ccnc(C(F)(F)F)c2)c(=O)c(C(=O)NCc2ccc(S(C)(=O)=O)cc2)cn1C(C)C` [Example 5.1, 1-Isopropyl-2-methyl-4-oxo-2′-trifluoromethyl-1,4-dihydro-[3,4]bipyridinyl-5-carboxylic acid 4-methanesulfonyl-benzylamide], the IC50 is reported as 72 nM.
Compound `Cc1c(-c2cccc(C(F)F)c2)c(=O)c(C(=O)NCc2ccc(Cn3ccnc3)cc2)cn1C(C)C` [Example 4.11] has an IC50 of 18 nM.
In the case of `CC[C@H](C)n1cc(C(=O)NCc2ccc(S(C)(=O)=O)cc2)c(=O)c(-c2ccnc(C(F)(F)F)c2)c1C` [Example 12.3, (S)-1-sec-Butyl-2-methyl-4-oxo-2′-trifluoromethyl-1,4-dihydro-[3,4]bipyridinyl-5-carboxylic acid 4-methanesulfonyl-benzylamide], the IC50 is reported as 54 nM.
Compound `Cc1c(-c2cccc(C(F)(F)F)c2)c(=O)c(C(=O)NCc2ccc(S(=O)(=O)C3CC3)cc2)cn1C(C)C` [Example 31, 1-Isopropyl-6-methyl-4-oxo-5-(3-trifluoromethyl-phenyl)-1,4-dihydro-pyridine-3-carboxylic acid 4-cyclopropanesulfonyl-benzylamide] has an IC50 of 5.2 nM.
Compound `Cc1c(-c2cccc(C(F)F)c2)c(=O)c(C(=O)NCc2ccc([S+](C)[O-])cc2)cn1C(C)C` (stereo not drawn) [Example 4.8] has an IC50 of 10 nM.
`COCCn1cc(C(=O)NCc2ccc(S(C)(=O)=O)cn2)c(=O)c(-c2cccc(C(F)(F)F)c2)c1C` [Example 21, 1-(2-Methoxy-ethyl)-6-methyl-4-oxo-5-(3-trifluoromethyl-phenyl)-1,4-dihydro-pyridine-3-carboxylic acid (5-methanesulfonyl-pyridin-2-ylmethyl)-amide] was tested, and the IC50 was 43 nM.
With `Cc1c(-c2cccc(C(F)(F)F)c2)c(=O)c(C(=O)NCc2ccc(S(C)(=O)=O)cc2F)cn1C(C)C` [Example 34, 1-Isopropyl-6-methyl-4-oxo-5-(3-trifluoromethyl-phenyl)-1,4-dihydro-pyridine-3-carboxylic acid 2-fluoro-4-methanesulfonyl-benzylamide] the IC50 was 26 nM.
Work on `Cc1c(-c2cccc(C(F)F)c2)c(=O)c(C(=O)NCc2ccc(S(C)(=O)=O)s2)cn1C(C)C` [Example 40, 5-(3-Difluoromethyl-phenyl)-1-isopropyl-6-methyl-4-oxo-1,4-dihydro-pyridine-3-carboxylic acid (5-methanesulfonyl-thiophen-2-ylmethyl)-amide] yielded an IC50 of 31 nM.
`COc1cc(CNC(=O)c2cn(C(C)C)c(C)c(-c3cccc(C(F)(F)F)c3)c2=O)ccc1S(C)(=O)=O` [Example 49, 1-Isopropyl-6-methyl-4-oxo-5-(3-trifluoromethyl-phenyl)-1,4-dihydro-pyridine-3-carboxylic acid 4-methanesulfonyl-3-methoxy-benzylamide] showed an IC50 of 47 nM.
`CC[C@@H](C)n1cc(C(=O)NCc2nnc(C)o2)c(=O)c(-c2cccc(C(F)(F)F)c2)c1C` [Example 25.1, (R)-1-sec-Butyl-6-methyl-4-oxo-5-(3-trifluoromethyl-phenyl)-1,4-dihydro-pyridine-3-carboxylic acid (5-methyl-[1,3,4]oxadiazol-2-ylmethyl)-amide] showed an IC50 of 37 nM.
`Cc1c(-c2cccc(C(F)(F)F)c2)c(=O)c(C(=O)NCc2ccc(S(C)(=O)=O)cc2)cn1C1CCC1` [Example 7, 1-Cyclobutyl-6-methyl-4-oxo-5-(3-trifluoromethyl-phenyl)-1,4-dihydro-pyridine-3-carboxylic acid 4-methanesulfonyl-benzylamide] was tested, and the IC50 was 27 nM.
In the case of `Cc1nnc(CNC(=O)c2cn(C3CCCC3)c(C)c(-c3cccc(C(F)(F)F)c3)c2=O)o1` [Example 8.1, 1-Cyclopentyl-6-methyl-4-oxo-5-(3-trifluoromethyl-phenyl)-1,4-dihydro-pyridine-3-carboxylic acid (5-methyl-[1,3,4]oxadiazol-2-ylmethyl)-amide], the IC50 is reported as 43 nM.
`CC[C@@H](C)n1cc(C(=O)NCc2nnc(C)o2)c(=O)c(-c2cccc(C(F)F)c2)c1C` [Example 25.2, (R)-1-sec-Butyl-5-(3-difluoromethyl-phenyl)-6-methyl-4-oxo-1,4-dihydro-pyridine-3-carboxylic acid (5-methyl-[1,3,4]oxadiazol-2-ylmethyl)-amide] was tested, and the IC50 was 30 nM.
In the case of `Cc1c(-c2cccc(C(F)F)c2)c(=O)c(C(=O)NCc2cn3ccccc3n2)cn1C(C)C` [Example 4.6], the IC50 is reported as 28 nM.
For `COc1cc(S(C)(=O)=O)ccc1CNC(=O)c1cn(C(C)C)c(C)c(-c2cccc(C(F)(F)F)c2)c1=O` [Example 47, 1-Isopropyl-6-methyl-4-oxo-5-(3-trifluoromethyl-phenyl)-1,4-dihydro-pyridine-3-carboxylic acid 4-methanesulfonyl-2-methoxy-benzylamide], the IC50 was 38 nM.
`CC[C@@H](C)n1cc(C(=O)NCc2ccc(S(C)(=O)=O)cc2)c(=O)c(-c2ccnc(C(F)(F)F)c2)c1C` [Example 11.2, (R)-1-sec-Butyl-2-methyl-4-oxo-2′-trifluoromethyl-1,4-dihydro-[3,4]bipyridinyl-5-carboxylic acid 4-methanesulfonyl-benzylamide] showed an IC50 of 35 nM.
With `Cc1c(-c2cccc(C(F)(F)F)c2)c(=O)c(C(=O)NCc2ccc([S+](C)[O-])cc2)cn1C(C)C` (racemic) [Example 27.1, 1-Isopropyl-6-methyl-4-oxo-5-(3-trifluoromethyl-phenyl)-1,4-dihydro-pyridine-3-carboxylic acid 4-methanesulfinyl-benzylamide] the IC50 was 9 nM.
Compound `Cc1c(-c2cccc(C(F)(F)F)c2)c(=O)c(C(=O)NCc2cccc(S(C)(=O)=O)c2)cn1C(C)C` [Example 3.6] has an IC50 of 89 nM.
`COC[C@@H](C)n1cc(C(=O)NCc2ccc(S(C)(=O)=O)cc2)c(=O)c(-c2cccc(C(F)F)c2)c1C` [Example 44, (R)-5-(3-Difluoromethyl-phenyl)-1-(2-methoxy-1-methyl-ethyl)-6-methyl-4-oxo-1,4-dihydro-pyridine-3-carboxylic acid 4-methanesulfonyl-benzylamide] showed an IC50 of 45 nM.
In the case of `Cc1c(-c2cccc(C(F)F)c2)c(=O)c(C(=O)NCc2ccc(CN3CCCC3=O)cc2)cn1C(C)C` [Example 4.13], the IC50 is reported as 20 nM.
`Cc1c(-c2cccc(C(F)(F)F)c2)c(=O)c(C(=O)NCc2cn3c(n2)S(=O)(=O)CC3)cn1C(C)C` [Example 38, 1-Isopropyl-6-methyl-4-oxo-5-(3-trifluoromethyl-phenyl)-1,4-dihydro-pyridine-3-carboxylic acid (1,1-dioxo-2,3-dihydro-1H-1λ^6-imidazo[2,1-b]thiazol-6-ylmethyl)-amide] gave an IC50 of 5.3 nM.
In the case of `Cc1c(-c2cccc(C(F)F)c2)c(=O)c(C(=O)NCc2ccc(S(C)(=O)=O)cn2)cn1C1CCC1` [Example 18.2, 1-Cyclobutyl-5-(3-difluoromethyl-phenyl)-6-methyl-4-oxo-1,4-dihydro-pyridine-3-carboxylic acid (5-methanesulfonyl-pyridin-2-ylmethyl)-amide], the IC50 is reported as 35 nM.
`Cc1c(-c2cccc(C(F)F)c2)c(=O)c(C(=O)NCc2ccc(S(C)(=O)=O)cn2)cn1C(C)C` [Example 17.2, 5-(3-Difluoromethyl-phenyl)-1-isopropyl-6-methyl-4-oxo-1,4-dihydro-pyridine-3-carboxylic acid (5-methanesulfonyl-pyridin-2-ylmethyl)-amide] showed an IC50 of 15 nM.
